Converted amounts (≈) assume the structure as drawn. Where two headings read alike, the source gives them in different places.
How the values were obtained:
Str. pneumoniae A-9585 = assay: MIC, tube dilution, Streptococcus pneumoniae A9585; format: cell-based; conditions: overnight 37° C., Nutrient Broth; for MIC: Streptococcus pneumoniae, A9585, Str. pneumoniae A9585, read-out: Minimum Inhibitory Concentration (M.I.C.)
Source text: (§1) Representative compounds of the present invention were subjected to in vitro antibiotic screening against a variety of microorganisms.

Str. pyogenes A-9604 = assay: MIC, tube dilution, Streptococcus pyogenes A9604; format: cell-based; conditions: overnight 37° C., Nutrient Broth; for MIC: Streptococcus pyogenes, A9604, Str. pyogenes A9604, read-out: Minimum Inhibitory Concentration (M.I.C.)
Source text: as §1

Staph. aureus A-9537 = assay: MIC, tube dilution, Staphylococcus aureus A9537; format: cell-based; conditions: overnight 37° C., Nutrient Broth; for MIC: Staphylococcus aureus, A9537, Staph. aureus A9537, read-out: Minimum Inhibitory Concentration (M.I.C.)
Source text: as §1

[1] = tested on: Staph. aureus A-9537 and 50% serum; assay: MIC, tube dilution, Staph. aureus A9537 + 50% serum; format: cell-based, Staphylococcus aureus; conditions: overnight 37° C.; for MIC: Staphylococcus aureus, read-out: Minimum Inhibitory Concentration (M.I.C.)
Source text: as §1

[2] = tested on: Staph. aureus (Pen-Res) A-9606; assay: MIC, tube dilution, Staphylococcus aureus A9606 (Pen-Res); format: cell-based; conditions: Staph. aureus A9606 (Pen-Res), overnight 37° C.; for MIC: Staphylococcus aureus, read-out: Minimum Inhibitory Concentration (M.I.C.)
Source text: as §1

[3] = tested on: Staph. aureus (Meth-Res) A-15097; assay: MIC, tube dilution, Staphylococcus aureus A15097 (Meth-Res); format: cell-based; conditions: overnight 37° C.; for MIC: Staphylococcus aureus
Source text: as §1

Str. faecalis A-20688 = assay: MIC, tube dilution, Streptococcus faecalis A20688; format: cell-based; conditions: overnight 37° C.; for MIC: Enterococcus faecalis, A20688, Str. faecalis A20688, read-out: Minimum Inhibitory Concentration (M.I.C.)
Source text: as §1

E. coli A-15119 = assay: MIC, tube dilution, Escherichia coli A15119; format: cell-based; conditions: overnight 37° C.; for MIC: Escherichia coli, A15119, E. coli A15119, read-out: Minimum Inhibitory Concentration (M.I.C.)
Source text: as §1

E. coli A-20341-1 = assay: MIC, tube dilution, Escherichia coli A20341-1; format: cell-based
Source text: as §1

K. pneumoniae A-15130 = assay: MIC, tube dilution, Klebsiella pneumoniae A15130; format: cell-based; conditions: overnight 37° C.; for MIC: Klebsiella pneumoniae, A15130, K. pneumoniae A15130, read-out: Minimum Inhibitory Concentration (M.I.C.)
Source text: as §1

[4] = tested on: Klebsiella species A20468; assay: MIC, tube dilution, Klebsiella species A20468; format: cell-based; conditions: Klebsiella species (K. pneumoniae) A20468, overnight 37° C.; for MIC: read-out: Minimum Inhibitory Concentration (M.I.C.)
Source text: as §1

Pr. mirabilis A-9900 = assay: MIC, tube dilution, Proteus mirabilis A9900; format: cell-based; conditions: overnight 37° C.; for MIC: Proteus mirabilis, A9900, Proteus mirabilis A9900, read-out: Minimum Inhibitory Concentration (M.I.C.)
Source text: as §1

Pr. morganii A-15153 = assay: MIC, tube dilution, Proteus morganii A15153; format: cell-based; conditions: overnight 37° C.; for MIC: Morganella morganii, A15153, Proteus morganii A15153, read-out: Minimum Inhibitory Concentration (M.I.C.)
Source text: as §1

Ser. marcescens A-20019 = assay: MIC, tube dilution, Serratia marcescens A20019; format: cell-based; conditions: overnight 37° C.; for MIC: Serratia marcescens, A20019, Serratia marcescens A20019, read-out: Minimum Inhibitory Concentration (M.I.C.)
Source text: as §1

Ent. cloacae A-9659 = assay: MIC, tube dilution, Enterobacter cloacae A9659; format: cell-based; conditions: overnight 37° C.; for MIC: Enterobacter cloacae, A9659, Enterobacter cloacae A9659, read-out: Minimum Inhibitory Concentration (M.I.C.)
Source text: as §1

Ent. cloacae A-9656 = assay: MIC, tube dilution, Enterobacter cloacae A9656; format: cell-based; conditions: overnight 37° C.; for MIC: Enterobacter cloacae, A9656, Enterobacter cloacae A9656, read-out: Minimum Inhibitory Concentration (M.I.C.)
Source text: as §1

Ps. aeruginosa A-9843A = assay: MIC, tube dilution, Pseudomonas aeruginosa A9843A; format: cell-based; conditions: overnight 37° C.; for MIC: Pseudomonas aeruginosa, A9843A, read-out: Minimum Inhibitory Concentration (M.I.C.), Pseudomonas aeruginosa A9843A
Source text: as §1

Ps. aeruginosa A-21213 = assay: MIC, tube dilution, Pseudomonas aeruginosa A21213; format: cell-based; conditions: overnight 37° C.; for MIC: read-out: Minimum Inhibitory Concentration (M.I.C.)
Source text: as §1

Proteus rettgeri A21203 = assay: MIC, tube dilution, Proteus rettgeri A21203; format: cell-based; conditions: overnight 37° C.; for MIC: Providencia rettgeri, A21203, Proteus rettgeri A21203, read-out: Minimum Inhibitory Concentration (M.I.C.)
Source text: as §1

Proteus vulgaris A21559 = assay: MIC, tube dilution, Proteus vulgaris A21559; format: cell-based; conditions: overnight 37° C.; for MIC: Proteus vulgaris, A21559, Proteus vulgaris A21559, read-out: Minimum Inhibitory Concentration (M.I.C.)
Source text: as §1

Pr. vulgaris A-9716 = assay: MIC, tube dilution, Proteus vulgaris / Proteus mirabilis A9716; format: cell-based, Proteus vulgaris (name changed to Proteus mirabilis); conditions: Proteus vulgaris, A9716, Proteus vulgaris / Proteus mirabilis A9716; overnight 37° C.; read-out: Minimum Inhibitory Concentration (M.I.C.)
Source text: as §1

[5] = Staph. aureus A15097 (Meth-Res), read-out: Minimum Inhibitory Concentration (M.I.C.)
[6] = Escherichia coli, A203411, E. coli A20341-1; overnight 37° C.; read-out: Minimum Inhibitory Concentration (M.I.C.)
[7] = Pseudomonas aeruginosa, A21213, Pseudomonas aeruginosa A21213

| SMILES | MIC (Str. pneumoniae A-9585) [µg/mL] | MIC (Str. pyogenes A-9604) [µg/mL] | MIC (Staph. aureus A-9537) [µg/mL] | MIC [1] [µg/mL] | MIC [2] [µg/mL] | MIC [3, 5] [µg/mL] | MIC (Str. faecalis A-20688) [µg/mL] | MIC (E. coli A-15119) [µg/mL] | MIC (E. coli A-20341-1; [6]) [µg/mL] | MIC (K. pneumoniae A-15130) [µg/mL] | MIC [4] [µg/mL] | MIC (Pr. mirabilis A-9900) [µg/mL] | MIC (Pr. morganii A-15153) [µg/mL] | MIC (Ser. marcescens A-20019) [µg/mL] | MIC (Ent. cloacae A-9659) [µg/mL] | MIC (Ent. cloacae A-9656) [µg/mL] | MIC (Ps. aeruginosa A-9843A) [µg/mL] | MIC (Ps. aeruginosa A-21213; [7]) [µg/mL] | MIC (Proteus rettgeri A21203) [µg/mL] | MIC (Proteus vulgaris A21559) [µg/mL] | other results |
| --- | --- | --- | --- | --- | --- | --- | --- | --- | --- | --- | --- | --- | --- | --- | --- | --- | --- | --- | --- | --- | --- |
| NCCCCCC1=C(C(=O)O)N2C(=O)C[C@H]2S1 [Example 102, (5R) 2-(5'-aminopentyl)-penem-3-carboxylic acid] |  |  |  |  |  |  |  |  |  |  |  |  |  |  |  |  |  |  |  |  | Minimum Inhibitory Concentration (M.I.C.) (Str. pneumoniae A-9585; Str. pneumoniae A9585): .008 µg/mL; Minimum Inhibitory Concentration (M.I.C.) (Str. pyogenes A-9604; Str. pyogenes A9604): .016 µg/mL; Minimum Inhibitory Concentration (M.I.C.) (Staph. aureus A-9537; Staph. aureus A9537): .03 µg/mL; Minimum Inhibitory Concentration (M.I.C.) [1]: .25 µg/mL; Minimum Inhibitory Concentration (M.I.C.) [2]: 2 µg/mL; Minimum Inhibitory Concentration (M.I.C.) ([3]; Staph. aureus A15097 (Meth-Res)): 8 µg/mL; Minimum Inhibitory Concentration (M.I.C.) (Str. faecalis A-20688; Str. faecalis A20688): 4 µg/mL; Minimum Inhibitory Concentration (M.I.C.) (E. coli A-15119; E. coli A15119): 1 µg/mL; Minimum Inhibitory Concentration (M.I.C.) (E. coli A-20341-1; E. coli A20341-1; overnight 37° C.): 16 µg/mL; Minimum Inhibitory Concentration (M.I.C.) (K. pneumoniae A-15130; K. pneumoniae A15130): 2 µg/mL; Minimum Inhibitory Concentration (M.I.C.) [4]: > 63 µg/mL; Minimum Inhibitory Concentration (M.I.C.) (Pr. mirabilis A-9900; Proteus mirabilis A9900): 2 µg/mL; Minimum Inhibitory Concentration (M.I.C.) (Pr. morganii A-15153; Proteus morganii A15153): 2 µg/mL; Minimum Inhibitory Concentration (M.I.C.) (Ser. marcescens A-20019; Serratia marcescens A20019): 2 µg/mL; Minimum Inhibitory Concentration (M.I.C.) (Ent. cloacae A-9659; Enterobacter cloacae A9659): 4 µg/mL; Minimum Inhibitory Concentration (M.I.C.) (Ent. cloacae A-9656; Enterobacter cloacae A9656): 2 µg/mL; Minimum Inhibitory Concentration (M.I.C.) (Ps. aeruginosa A-9843A; Pseudomonas aeruginosa A9843A): 8 µg/mL; Minimum Inhibitory Concentration (M.I.C.) (Ps. aeruginosa A-21213; Pseudomonas aeruginosa A21213): > 63 µg/mL; Minimum Inhibitory Concentration (M.I.C.) (Proteus rettgeri A21203; Proteus rettgeri A21203): 2 µg/mL; Minimum Inhibitory Concentration (M.I.C.) (Proteus vulgaris A21559; Proteus vulgaris A21559): 16 µg/mL |
| N=C(Cc1ccccc1)NCC1=C(C(=O)O)N2C(=O)CC2S1 (stereo not shown) [Example 107] | 0.5 (≈ 1.58 µM) | 0.5 (≈ 1.58 µM) | 0.5 (≈ 1.58 µM) | 16 | 32 (≈ 101 µM) | > 63 | > 63 | 63 (≈ 199 µM) | > 63 | > 63 | > 63 | 63 (≈ 199 µM) | 63 (≈ 199 µM) | 63 (≈ 199 µM) | > 63 | 63 (≈ 199 µM) | 63 (≈ 199 µM) | 63 (≈ 199 µM) | 63 (≈ 199 µM) | 63 (≈ 199 µM) |  |
| N=C(NCC1=C(C(=O)O)N2C(=O)CC2S1)c1ccccc1 (stereo not shown) [Example 108, 2-Phenylimidoylaminomethylpenem-3-carboxylic Acid] | 0.25 (≈ 0.824 µM) | 0.25 (≈ 0.824 µM) | 0.25 (≈ 0.824 µM) | 16 | 16 (≈ 52.7 µM) | > 125 | 125 (≈ 412 µM) | 63 (≈ 208 µM) | > 125 | 125 (≈ 412 µM) | > 125 | 63 (≈ 208 µM) | 63 (≈ 208 µM) | 125 (≈ 412 µM) | 125 (≈ 412 µM) | 125 (≈ 412 µM) | 63 (≈ 208 µM) | 125 (≈ 412 µM) | 63 (≈ 208 µM) | 125 (≈ 412 µM) |  |
| CC1(CC2=C(C(=O)O)N3C(=O)CC3S2)OCCO1 (stereo not shown) [Preparation 22, 2-(Acetonyl-ethylene-ketal)penem-3-carboxylic Acid] | 0.13 (≈ 0.479 µM) | 0.25 (≈ 0.922 µM) | 0.5 (≈ 1.84 µM) | 32 | 32 (≈ 118 µM) |  | 125 (≈ 461 µM) |  |  | 32 (≈ 118 µM) | 125 (≈ 461 µM) | 16 (≈ 59 µM) | 8 (≈ 29.5 µM) | 63 (≈ 232 µM) | 63 (≈ 232 µM) | 63 (≈ 232 µM) | 125 (≈ 461 µM) |  | 16 (≈ 59 µM) |  | MIC ([3]; read-out: Minimum Inhibitory Concentration (M.I.C.), Staph. aureus A15097 (Meth-Res)): > 125 µg/mL; MIC (E. coli A-20341-1; Escherichia coli, A203411; E. coli A20341-1; overnight 37° C.; read-out: Minimum Inhibitory Concentration (M.I.C.)): 125 µg/mL (≈ 461 µM); MIC (Pr. vulgaris A-9716): 4 µg/mL (≈ 14.7 µM); MIC (Ps. aeruginosa A-21213; Pseudomonas aeruginosa A21213): 125 µg/mL (≈ 461 µM) |

Source: patent US4272437A, “Antibacterial agents, and 4-thio azetidinone intermediates” (priority 1979, dated 1981)
